Ends that are not written are not given here.
Columns and labels:
[1] = Peptide binding to heparin-coated wells; details: FIG. 5B
Description: (§1) The peptides CGKRK (SEQ ID NO:1) and KAREC (SEQ ID NO:2) were diluted two-fold in PBS at different concentrations and added to collagen- and heparin-coated wells preblocked with 5% bovine serum albumin. The plates were incubated at room temperature for 1 hour, washed 4 times with 200 μL PBS, and scanned at […] of 485 and 515 nm using a SpectraMax M5 fluorescence plate reader. The PBS background was subtracted from the data points, and the data were plotted with Prism.

[2] = biological target: collagen type I (Homo sapiens, UniProt P02452+P08123); assay: Peptide binding to collagen-coated wells; details: FIG. 5C
collagen type I, sequence (P02452 162-1218 limits assumed): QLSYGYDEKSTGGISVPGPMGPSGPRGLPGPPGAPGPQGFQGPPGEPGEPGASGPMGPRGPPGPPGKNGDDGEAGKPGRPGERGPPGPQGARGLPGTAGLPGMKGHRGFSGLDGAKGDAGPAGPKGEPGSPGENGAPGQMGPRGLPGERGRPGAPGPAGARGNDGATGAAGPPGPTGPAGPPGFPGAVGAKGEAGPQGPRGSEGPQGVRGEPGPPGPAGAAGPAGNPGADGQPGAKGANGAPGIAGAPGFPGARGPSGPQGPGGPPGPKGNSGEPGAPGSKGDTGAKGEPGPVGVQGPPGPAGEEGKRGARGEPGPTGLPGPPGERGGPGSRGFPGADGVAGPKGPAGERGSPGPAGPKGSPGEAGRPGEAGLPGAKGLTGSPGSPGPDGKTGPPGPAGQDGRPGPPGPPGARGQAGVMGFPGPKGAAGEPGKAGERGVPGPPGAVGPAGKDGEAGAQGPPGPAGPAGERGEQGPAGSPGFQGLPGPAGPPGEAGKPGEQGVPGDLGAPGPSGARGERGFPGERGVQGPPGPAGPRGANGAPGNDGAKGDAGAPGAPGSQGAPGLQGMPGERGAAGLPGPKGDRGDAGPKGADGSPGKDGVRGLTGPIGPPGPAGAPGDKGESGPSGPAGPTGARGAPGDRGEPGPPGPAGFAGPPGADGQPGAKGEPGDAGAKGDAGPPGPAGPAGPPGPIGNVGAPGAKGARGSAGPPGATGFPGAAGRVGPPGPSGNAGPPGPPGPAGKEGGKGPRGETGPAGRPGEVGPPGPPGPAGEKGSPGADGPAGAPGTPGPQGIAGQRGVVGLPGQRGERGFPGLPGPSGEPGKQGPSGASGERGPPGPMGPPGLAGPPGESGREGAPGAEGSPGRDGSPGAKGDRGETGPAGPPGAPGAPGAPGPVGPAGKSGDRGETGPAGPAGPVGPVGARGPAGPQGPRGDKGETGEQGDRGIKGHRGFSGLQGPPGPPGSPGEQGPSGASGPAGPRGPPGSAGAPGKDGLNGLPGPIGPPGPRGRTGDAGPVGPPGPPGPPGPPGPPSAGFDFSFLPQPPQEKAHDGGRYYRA
collagen type I, sequence (P08123 80-1119 limits assumed): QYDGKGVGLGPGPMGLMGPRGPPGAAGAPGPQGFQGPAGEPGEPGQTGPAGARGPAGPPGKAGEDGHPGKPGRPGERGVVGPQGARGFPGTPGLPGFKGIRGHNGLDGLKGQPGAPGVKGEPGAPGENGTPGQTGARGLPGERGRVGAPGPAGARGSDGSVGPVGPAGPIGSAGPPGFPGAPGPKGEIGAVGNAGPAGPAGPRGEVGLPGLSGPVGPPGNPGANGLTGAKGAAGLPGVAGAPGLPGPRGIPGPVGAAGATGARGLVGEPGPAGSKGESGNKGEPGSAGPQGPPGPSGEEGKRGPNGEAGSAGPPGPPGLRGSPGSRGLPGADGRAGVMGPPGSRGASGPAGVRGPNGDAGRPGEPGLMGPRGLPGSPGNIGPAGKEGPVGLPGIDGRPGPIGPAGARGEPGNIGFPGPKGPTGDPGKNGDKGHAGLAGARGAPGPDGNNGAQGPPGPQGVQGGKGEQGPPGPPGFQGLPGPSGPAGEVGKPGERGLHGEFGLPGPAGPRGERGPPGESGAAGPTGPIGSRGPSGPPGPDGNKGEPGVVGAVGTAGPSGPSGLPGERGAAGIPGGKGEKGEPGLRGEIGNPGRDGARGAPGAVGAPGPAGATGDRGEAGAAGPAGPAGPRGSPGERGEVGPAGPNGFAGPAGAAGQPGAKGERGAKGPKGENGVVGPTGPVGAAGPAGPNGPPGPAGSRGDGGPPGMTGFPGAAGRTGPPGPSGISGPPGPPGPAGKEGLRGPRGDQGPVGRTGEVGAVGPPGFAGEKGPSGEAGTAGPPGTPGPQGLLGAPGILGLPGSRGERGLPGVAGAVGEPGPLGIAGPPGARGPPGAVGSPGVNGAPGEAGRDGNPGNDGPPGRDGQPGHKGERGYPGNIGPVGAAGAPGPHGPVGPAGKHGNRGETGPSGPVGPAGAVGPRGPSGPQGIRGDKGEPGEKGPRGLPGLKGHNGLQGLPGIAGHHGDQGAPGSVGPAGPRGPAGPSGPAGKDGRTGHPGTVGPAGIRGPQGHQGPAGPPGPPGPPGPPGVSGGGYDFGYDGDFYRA
Description: as §1

[3] = tested on: bladder urothelium; assay: Intravesical peptide binding to the mouse bladder with or without injury (in situ imaging, histology); type: in vivo, mice; details: for Binding in the bladder, in situ images: 15 minutes incubation; for Histological analysis of binding, entire bladder: 2× magnification
Description: Eight-to twelve-week-old female mice were anesthetized with isoflurane using a vaporizer machine at a flow rate of 1-3 L/min. The mice were placed on their backs and their urethra openings were pulled forward while squeezing the bladder to express urine. A lubricated 24 G Angiocath catheter with no needle was inserted via the urethra into the bladder cavity to wash the bladder once with […] PBS. To imitate a bladder injury subsequent to bladder cancer surgery, in which the urothelium is damaged after the removal of cancer tissues, the catheter tip was inserted completely and five circular motions were made in the apical part of the bladder. A 1 mL syringe with 100 μL of a CGKRK peptide (SEQ ID NO:1) solution (0.3 mg/mL in 80% PBS/20% DMSO) was attached to the catheter, and approximately 50 μL of the solution was injected into the bladder until the bladder was completely distended, as determined by abdominal palpitation. The catheter with attached syringe was left in the bladder for 15 minutes. After incubation, the peptide was removed via negative pressure, and the bladder was washed 5 times with PBS, with complete filling of the bladder each time. A Dino-Lite AM4113T-GRFBY camera equipped with 480- and 570-nm excitation filters and 510- and 610-nm long pass emission filters was used to take images of the bladder in situ. The abdominal cavity was opened by incision, and the bladder was imaged at 20 to 40 times magnification. The images were acquired at 1280×1024 resolution.
Freshly removed bladders were washed in PBS and snap frozen in liquid nitrogen. The tissue was embedded in optical cutting temperature (OCT) media and cryosectioned in consecutive 7-μm steps so that alternating sections were mounted on slides for fluorescence imaging and hematoxylin-eosin (H&E) staining, respectively. The tissues on each slide were fixed in a 10% buffered formalin solution, mounted with Vectashield™ antifade mounting medium with DAPI (for fluorescence imaging) or Permount™ medium (for H&E staining), and covered with a coverslip. The bladders imaged with a Nikon E600 upright fluorescence microscope with a SPOT RT color camera. The images in each fluorescence channel were acquired under saturation as 12-bit gray TIFF files, and H&E images were acquired as RGB images. Each low-magnification image covering the entire bladder area was analyzed with ImageJ software. The background was subtracted, and the integrated gray density per image was calculated. The intensities were plotted as individual values using Prism software.
Referring now to FIGS. 6A and 6B, the effect of mechanical injury on accumulation of peptides in the bladder is illustrated. Mice were treated by washing the bladder and inducing injury to the mucosal surface of the bladder; the peptide was then injected into the bladder and incubated 15 minutes; the bladder was then washed 5 times. […] The arrows in FIGS. 6A and 6B indicate the apical region of the bladder.
An investigation of the mechanisms of injury-induced accumulation of CGKRK (SEQ ID NO:1) was conducted. CGKRK (SEQ ID NO:1) was mixed with EDTA-treated blood and administered intravesically. […] Mice were pretreated with the anti-inflammatory agent dexamethasone prior to injury.

[4] = tested on: MB49 bladder carcinoma cell line; assay: Peptide uptake by MB49 bladder carcinoma cells; type: cell-based, murine
Description: An MB49 bladder carcinoma cell line was maintained in full Dulbecco's modified Eagle's medium (DMEM) with antibiotics and L-glutamine. Cells were seeded on 24 well plates for at least 24 hours to allow the cells to grow to confluence; each sample was done in triplicate. Samples were then incubated with one of free CGKRK (SEQ ID NO:1) and KAREC (SEQ ID NO:2), micelles of these two peptides, fluorescence TAT peptide (positive control), and PBS (negative control). After the incubation, all wells were washed with PBS three times to remove any free fluorescence molecules. Cells were detached from the wells with trypsin at 37° C. for 5 minutes. 0.3% Triton X-100 in PBS was added to the cells, and after 30 minutes of incubation, the solutions were centrifugated in an Eppendorf microcentrifuge at 15,000 rpm. The fluorescence intensity of the supernatant was measured using a fluorescence plate reader. For confocal imaging, cells were grown on glass chamber slides. Following the incubation experiment, cells were imaged with a Nikon MR Confocal STORM super-resolution microscope.

Kinetics of binding to heparin (curve fit) [1]	Kinetics of binding to collagen (curve fit) [2]	Substance	Binding in the bladder, in situ images ([3]; after mechanical injury)	Histological analysis of binding, entire bladder ([3]; injured bladder, FIG. 7)	Binding to heparin ([1]; versus KAREC)	Binding to collagen type I ([2]; versus KAREC)	Cellular uptake, accumulation in the cytoplasm (confocal images) [4]	Peptide uptake quantified by fluorescence spectroscopy ([4]; FIG. 5A, versus KAREC)	Accumulation after chemical disruption of the urothelium barrier with ethanol ([3]; 2× and 20× magnification)	Binding in the bladder, in situ images ([3]; absence of focal injury)	Histological analysis of binding, tissue layers ([3]; injured bladder, 20× magnification, FIG. 7)	Injury-induced binding after dexamethasone pretreatment ([3]; mice pretreated with dexamethasone prior to injury)	Binding when mixed with EDTA-treated blood ([3]; no injury, intravesical)
linear kinetics for other binding	linear kinetics for other binding	KAREC [comparison peptide tested beside CGKRK, reference compound]	limited binding at the injury site	less efficient and less widespread accumulation									
linear kinetics for other binding	saturation kinetics	CGKRK (also: fluorescent label) [cell-penetrating pentapeptide, fluorescently labelled in the tests]	efficient binding after injury	widespread binding	more efficient binding to both heparin and collagen type I	more efficient binding to both heparin and collagen type I	significant accumulation	significantly more accumulation	widespread accumulation	no binding	accumulation of the peptide in the urothelium (U) and some penetration into the muscle layer (ML)	did not block injury-induced binding	Blood did not induce binding in the absence of injury

— US11642319B2, “Targeted nanogels for urinary bladder therapies” (THE REGENTS OF THE UNIVERSITY OF COLORADO, priority 2017, dated 2023)
